pIC50: −log10 of the molar value.
How the values were obtained:
Type in all cases: biochemical
[1] = target: T1, anthranilate phosphoribosyl transferase (PRT) encoded by pCtrp1 (Corynebacterium glutamicum, UniProt P06559); assay: PRT activity, inhibition by tryptophan, TA108 strain carrying pCtrp1; details: read-out: Tryptophan concentration effective for 50% inhibition of the PRT activity
T1 construct: presence of the AS, PRT, TS-α and TS-β genes in the above 11.0 Kb DNA fragment introduced into pCtrp1; expressed in transfected cells; host or cells: C. glutamicum TA108 carrying pCtrp1
T1 sequence (P06559 1-348): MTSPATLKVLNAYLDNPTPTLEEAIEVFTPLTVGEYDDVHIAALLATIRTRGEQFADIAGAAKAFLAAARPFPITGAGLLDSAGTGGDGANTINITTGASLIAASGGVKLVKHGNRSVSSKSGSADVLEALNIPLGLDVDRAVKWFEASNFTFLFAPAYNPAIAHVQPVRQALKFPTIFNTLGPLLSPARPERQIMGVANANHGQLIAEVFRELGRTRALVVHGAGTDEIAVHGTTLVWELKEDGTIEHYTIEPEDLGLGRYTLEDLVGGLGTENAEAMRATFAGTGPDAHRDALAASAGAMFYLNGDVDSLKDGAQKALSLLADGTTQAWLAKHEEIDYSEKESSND
Procedure: (§1) AS activities of Corynebacterium glutamicum ATCC 13032 and TA108 strains carrying pCtrp1 or pCtrp57 were determined according to the method of H. Hagino, et al. [Agric. Biol. Chem., 39, 323 (1975)], and their PRT activities were determined according to the method of J. Ito and C. Yanofsky [J. Biol. Chem., 97, 734 (1969)]. AS and PRT activities of TA108 strains carrying pCtrp1 or pCtrp57 were more than 10 times as high as those of ATCC 13032 strain.

[2] = target: T2, anthranilate synthase (AS) encoded by pCtrp1 (Corynebacterium glutamicum, UniProt P06557); assay: AS activity, inhibition by tryptophan, TA108 strain carrying pCtrp1; details: read-out: Tryptophan concentration effective for 50% inhibition of the AS activity
T2 construct: cell enzyme activity
T2 sequence (P06558 whole entry): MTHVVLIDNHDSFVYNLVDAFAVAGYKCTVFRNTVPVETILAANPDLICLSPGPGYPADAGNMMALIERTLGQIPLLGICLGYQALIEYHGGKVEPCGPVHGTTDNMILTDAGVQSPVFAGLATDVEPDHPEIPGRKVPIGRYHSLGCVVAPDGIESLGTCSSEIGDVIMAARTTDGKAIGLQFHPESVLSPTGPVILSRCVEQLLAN
T2 sequence (P06557 whole entry): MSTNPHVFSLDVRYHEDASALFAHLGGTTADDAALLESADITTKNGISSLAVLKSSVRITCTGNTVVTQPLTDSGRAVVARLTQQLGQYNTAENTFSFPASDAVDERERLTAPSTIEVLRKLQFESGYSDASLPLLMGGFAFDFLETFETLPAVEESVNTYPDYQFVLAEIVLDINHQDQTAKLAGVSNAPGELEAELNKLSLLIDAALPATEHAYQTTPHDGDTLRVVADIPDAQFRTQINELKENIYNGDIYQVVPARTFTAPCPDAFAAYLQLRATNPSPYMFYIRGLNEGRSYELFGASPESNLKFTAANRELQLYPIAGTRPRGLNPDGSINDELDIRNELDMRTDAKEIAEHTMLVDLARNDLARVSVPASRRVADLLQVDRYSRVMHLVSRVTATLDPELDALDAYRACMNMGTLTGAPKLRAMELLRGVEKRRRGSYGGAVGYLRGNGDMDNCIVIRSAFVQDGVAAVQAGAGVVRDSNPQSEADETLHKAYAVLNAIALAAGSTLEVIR
Procedure: as §1

[3] = target: T3, anthranilate phosphoribosyl transferase (PRT) of ATCC 39019 strain (Corynebacterium glutamicum, UniProt P06559); assay: PRT activity, inhibition by tryptophan, ATCC 39019 strain; details: read-out: Tryptophan concentration effective for 50% inhibition of the PRT activity
T3 construct: endogenous in cells; host or cells: C. glutamicum, strain printed as ATCC 39019 (ATCC 13032 earlier in the same paragraph)
T3 sequence (P06559 1-348): T1 sequence (P06559 1-348)

[4] = target: T4, anthranilate phosphoribosyl transferase (PRT) encoded by pCtrp57 (Corynebacterium glutamicum, UniProt P06559); assay: PRT activity, inhibition by tryptophan, TA108 strain carrying pCtrp57; details: read-out: Tryptophan concentration effective for 50% inhibition of the PRT activity
T4 construct: cell enzyme activity
Procedure: (§2) TA108 strain carrying pCtrp1 was cultured in NB medium containing 10 μg/ml kanamycin till the latter stage of the logarithmic growth phase. The grown cells were collected and washed once with 50 mM Tris-maleate buffer solution (pH 6.0) by centrifugation. The washed cells were treated with 400 μg/ml N-methyl-N'-nitro-N-nitrosoguanidine in 50 mM Tris-maleate buffer solution at room temperature for 20 minutes. The treated cells were washed twice with 50 mM Tris-maleate buffer solution by centrifugation and cultured in NB medium containing 10 μg/ml kanamycin at 30° C. for 16 hours. A plasmid DNA was isolated from the grown cells in the same manner as in (1). TA108 strain was transformed with the plasmid thus obtained in the same manner as in (3), and the kanamycin-resistant Colonies grown on RCGP agar medium containing 200 μg/ml kanamycin were scraped up, and washed twice with physiological saline solution by centrifugation. The washed cells were spread on minimal agar medium M1 containing 3 mg/ml 5FT, and cultured at 30° C. for three days. […]
(§3) AS activities of Corynebacterium glutamicum ATCC 13032 and TA108 strains carrying pCtrp1 or pCtrp57 were determined according to the method of H. Hagino, et al. [Agric. Biol. Chem., 39, 323 (1975)], and their PRT activities were determined according to the method of J. Ito and C. […]

[5] = target: T5, anthranilate synthase (AS) encoded by pCtrp57 (Corynebacterium glutamicum, UniProt P06557); assay: AS activity, inhibition by tryptophan, TA108 strain carrying pCtrp57; details: read-out: Tryptophan concentration effective for 50% inhibition of the AS activity
T5 construct: cell enzyme activity
T5 sequence (P06558 whole entry): as the sequence (P06558 whole entry) above
T5 sequence (P06557 whole entry): as the sequence (P06557 whole entry) above
Procedure: as §2, §3

[6] = target: T6, anthranilate synthase (AS) of ATCC 39019 strain (Corynebacterium glutamicum, UniProt P06557); assay: AS activity, inhibition by tryptophan, ATCC 39019 strain; details: read-out: Tryptophan concentration effective for 50% inhibition of the AS activity
T6 construct: endogenous in cells; host or cells: C. glutamicum, strain printed as ATCC 39019 (ATCC 13032 earlier in the same paragraph)
T6 sequence (P06557 whole entry): as above
T6 sequence (P06558 whole entry partner): as the sequence (P06558 whole entry) above

[7] = tested on: 3-deoxy-D-arabino-heptulosonate-7-phosphate synthase (DS) of the transformant carrying pCGDS1; assay: DS activity, inhibition by phenylalanine and tyrosine, transformant carrying pCGDS1; details: Corynebacterium glutamicum ATCC 13032 carrying pCGDS1 (DS gene from K38)
Procedure: DS activities of Corynebacterium glutamicum ATCC 13032 and the transformant carrying pCGDS1 were determined according to the method of P. R. Sprinavasan, D. B. Sprinson, et al. [J. Biol. Chem., 234, 716 (1959)].

Row | Compound | pIC50 [1] | pIC50 [2] | pIC50 [3] | pIC50 [4] | pIC50 [5] | pIC50 [6] | Inhibition of DS in the transformant carrying pCGDS1 [7]
1 | N[C@@H](Cc1c[nH]c2ccccc12)C(=O)O [tryptophan] | 3.72 | 5.10 | 3.72 | 2.32 | 2.40 | 5.70 | –
2 | N[C@@H](Cc1ccccc1)C(=O)O [phenylalanine] | – | – | – | – | – | – | free from inhibition
3 | N[C@@H](Cc1ccc(O)cc1)C(=O)O [tyrosine] | – | – | – | – | – | – | free from inhibition

From patent US5407824A, “Recombinant coryneform bacterium for producing L-tryptophan” (Kyowa Hakko Kogyo Co., Ltd., priority 1989, dated 1995)
